From US10889572B2, “Reactive oxygen species scavengers and use for treating diseases” (XW LABORATORIES INC., priority 2017, dated 2021)
pEC50: −log10 of the molar value. Read-outs that look alike come from different tables or passages of the source.

Columns and labels:
[1] = test system: HT-1080 (fibrosarcoma) cells; experiment: Primary screening by ferroptosis assay (Erastin-induced, cell viability, CellTiter-Glo); format: cell-based; details: HT-1080 cells, 30 hours, % remaining activity, read-out: EC50, Inhibition for Ferroptosis in HT-1080 Cell
Procedure, shortened: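 HT-1080 cells seeded overnight, then treated in triplicate with 12-point 2-fold compound dilutions prepared in medium containing 400 μM Erastin (stock before transfer). Viability read by CellTiter-Glo luminescence after 30 h. % remaining activity normalised to vehicle and Erastin-only background; EC50 from non-linear regression.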

3T3-L1 cells = experiment: Apoptosis assay (Caspase-Glo 3/7, Actinomycin D induced); format: cell-based; details: 100 nM Actinomycin D, 48 hours, Caspase-Glo 3/7, 2 hours pre-treatment, read-out: EC50, Inhibition for Apoptosis in 3T3-L1 Cell induced by Actinomycin D
Protocol: Cell Lines and Media. 3T3-L1 cells were obtained from American Type Culture Collection. Cells were grown in DMEM completed media, 10% FBS, and penicillin-streptomycin mix (Invitrogen). Cells were maintained at 37° C. and 5% CO2 in a tissue culture incubator.
Apoptosis Assay. […] We used this assay to screen our compounds for apoptosis inhibition. Briefly, 40 μL of 3000 3T3-L1 cells were seeded per well in 384 well plates, cells were allowed to adhere overnight. In the next day, prepare the Actinomycin D as the apoptosis inducing agent into 100 μM DMSO stock. Prepare the test compounds into 10 mM DMSO stock. Serial dilute the compound into 10 points by 3-fold dilution with DMSO. Pre-treat the 3T3-L1 cells with test compound by transfer 40 nL of stock of serial concentration in triplicate wells using acoustic fluid transfer, incubate for 2 hours. Then transfer 40 nL of 100 μM of Actinomycin D (final concentration is 100 nM) into designated wells using acoustic fluid transfer. Incubate the assay plates at 37° C., 5% CO2, 95% humidity incubator for 48 hours. For caspase assay, add 20 μL/well of Caspase-Glo>3/7 reagent (Promega) into test wells. Incubate for 30 minutes at room temperature to stabilize the luminescence signal. Read the plate with EnSpire Multimode Plate Reader (PerkinElmer). Calculate the EC50 value using formula equation 201: y−(A+((B−A)/(1+((x/C)^D)))) from the XLFit (Excel add-in software), where
A: Average mean of vehicle samples
B: Average mean of cells treated with 100 nM AcD
Z′ factor was used to describe the screening assay perfonuance. The Z′ factor value was >0.5 in all the test plates which indicated the assay was qualified and the IC50 value was reliable for all tested compounds.

| pEC50 [1] | SMILES | pEC50 ([1]; Homo sapiens) | pEC50 (3T3-L1 cells; Mus musculus, 3T3-L1) | pEC50 (3T3-L1 cells) |
| --- | --- | --- | --- | --- |
|  | CC(C)C[C@@H](/C=C/[C@H](Cc1ccccc1)C(=O)N1CCC[C@H]1C(=O)N[C@@H](C(=O)NC1CC(C)(C)N([O])C(C)(C)C1)C(C)C)NC(=O)OC(C)(C)C [Example II, tert-Butyl ((4S,7S,E)-7-benzyl-8-((S)-2-(((R)-1-((1-oxyl-2,2,6,6-tetramethylpiperidin-4-yl)amino)-3-methyl-1-oxobutan-2-yl)carbamoyl)pyrrolidin-1-yl)-2-methyl-8-oxooct-5-en-4-yl)carbamate] | 6.54 | 5.52 |  |
| 6.60 | CC(C)CC(C=CC(Cc1ccccc1)C(=O)N1CCCC1C(=O)NC(CCCNC(=O)OC1CC(C)(C)N([O])C(C)(C)C1)C(N)=O)NC(=O)OC(C)(C)C [Example XXVIII, tert-Butyl N-[(4S,5E,7S)-7-benzyl-8-[(2S)—2-{[(1S)-1-carbamoyl-4-({[(1-oxyl-2,2,6,6-tetramethylpiperidin-4-yl)oxy]carbonyl}amino-)butyl]carbamoyl}pyrrolidin-1-yl]-2-methyl-8-oxooct-5-en-4-yl]carbamate] |  |  | 5.41 |
